# Measurements reported in patent US8716475B2, “2-aminopyrimidine modulators of the histamine H4 receptor” (Janssen Pharmaceutica NV, priority 2007, dated 2014).
# pKi: −log10 of the molar value.
# Target: T1, human H4 receptor (Homo sapiens, UniProt Q9H3N8)
# T1 construct: expressed in transfected cells
# Experiment: Binding Assay on Recombinant Human Histamine H4 Receptor
# Conditions: Table 1; [3H] histamine competition binding, membranes of SK-N-MC cells transfected with human H4 receptor; average of results
# Protocol: Binding Assay on Recombinant Human Histamine H4 Receptor.
# Cell pellets from SK-N-MC cells stably or transiently transfected with human H4 receptor were used for the binding assays. Cell pellets were homogenized in 50 mM Tris/5 mM EDTA buffer and supernatants from an 800g spin were collected and recentrifuged at 30,000g for 30 min. Pellets were rehomogenized in 50 mM Tris/5 mM EDTA buffer. […] Compounds were tested in free base, hydrochloride salt, or trifluoroacetic acid form. Nonspecific binding was defined with 100 μM cold histamine. […] Membranes were harvested by rapid filtration using the 96 well Brandel system or a cell harvester using a Whatman GF/C filter or filter plates treated with 0.5% polyethylenimine (PEI), and washed 4 times with ice-cold 50 mM Tris/5 mM EDTA buffer. Filters were then dried, mixed with scintillant and radioactive counts were determined. […] Data marked with an asterisk (*) were obtained by the cell harvester method. Where activity is shown as greater than (>) a particular value, the value is the highest concentration tested.
row,Compound,pKi
1,"CN1CCN(c2cc(Cc3ccccc3)nc(N)n2)CC1 [Example 63, 4-Benzyl-6-(4-methyl-piperazin-1-yl)-pyrimidin-2-ylamine]",7.68
2,"CN1CCN(c2cc(C3CCOC3)nc(N)n2)CC1 (centres unmarked) [Example 57, 4-(4-Methyl-piperazin-1-yl)-6-(tetrahydro-furan-3-yl)-pyrimidin-2-ylamine]",7.57
3,"CC(C)c1cc(N2CCC[C@H](N)C2)nc(N)n1 [Example 10, (S)-4-(3-Amino-piperidin-1-yl)-6-isopropyl-pyrimidin-2-ylamine]",6.80
4,"CN[C@@H]1CCN(c2cc(C3CC3)nc(N)n2)C1 [Example 41, (R)-(4-Cyclopropyl-6-3-methylamino-pyrrolidin-1-yl)-pyrimidin-2-ylamine]",7.55
5,"CNC1CN(c2cc(C(C)C)nc(N)n2)CC1O (stereo not drawn) [Example 13, trans-1-(2-Amino-6-isopropyl-pyrimidin-4-yl)-4-methylamino-pyrrolidin-3-ol]",6.20
6,"Nc1nc(C2CCCC2)cc(N2CCC[C@@H](N)C2)n1 [Example 3, (R)-4-(3-Amino-piperidin-1-yl)-6-cyclopentyl-pyrimidin-2-ylamine]",6.59
7,"CC(C)c1cc(N2C[C@H]3CCCN[C@H]3C2)nc(N)n1 [Example 20, (R,R)-4-Isopropyl-6-(cis-octahydro-pyrrolo[3,4-b]pyridin-6-yl)-pyrimidin-2-ylamine]",7.74
8,"Cc1nc(N)nc(N2CCNCC2)c1C [Example 25, 4,5-Dimethyl-6-piperazin-1-yl-pyrimidin-2-ylamine]",6.54
9,"Cc1cc(N2CCN(C)CC2)nc(N)n1 [Example 22, 4-Methyl-6-(4-methyl-piperazin-1-yl)-pyrimidin-2-ylamine]",7.74
10,"CC(C)c1cc(N2C[C@H]3CN(C)C[C@H]3C2)nc(N)n1 [Example 18, 4-Isopropyl-6-(cis-5-methyl-hexahydro-pyrrolo[3,4-c]pyrrol-2-yl)-pyrimidin-2-ylamine]",7.77
11,"CN[C@@H]1CCN(c2cc(C3CCC3)nc(N)n2)C1 [Example 46, (R)-4-Cyclobutyl-6-(3-methylamino-pyrrolidin-1-yl)-pyrimidin-2-ylamine]",8.70
12,"CN1C[C@@H]2CN(c3cc(C4CCC4)nc(N)n3)C[C@@H]2C1 [Example 49, 4-Cyclobutyl-6-(cis-5-methyl-hexahydro-pyrrolo[3,4-c]pyrrol-2-yl)-pyrimidin-2-ylamine]",7.30
13,"Nc1nc(C2CCCCC2)cc(N2C[C@H]3CCCN[C@H]3C2)n1 [Example 55, (R,R)-4-Cyclohexyl-6-(octahydro-pyrrolo[3,4-b]pyridin-6-yl)-pyrimidin-2-ylamine]",9.00
14,"CN[C@@H]1CCN(c2nc(N)nc3c2CCCC3)C1 [Example 69, (R)-4-(3-Methylamino-pyrrolidin-1-yl)-5,6,7,8-tetrahydro-quinazolin-2-ylamine]",7.37
15,"Cc1cc(N2CC3CCCNC3C2)nc(N)n1 (stereo not drawn) [Example 24, 4-Methyl-6-(cis-octahydro-pyrrolo[3,4-b]pyridin-6-yl)-pyrimidin-2-ylamine]",7.31
16,"CC(C)c1cc(N2CCC[C@@H](N)C2)nc(N)n1 [Example 9, (R)-4-(3-Amino-piperidin-1-yl)-6-isopropyl-pyrimidin-2-ylamine]",6.09
17,"CN1CCN(c2cc(C3CCC3)nc(N)n2)CC1 [Example 44, 4-Cyclobutyl-6-(4-methyl-piperazin-1-yl)-pyrimidin-2-ylamine]",9.00
18,"CN1CCN(c2cc(C3CCCC3)nc(N)n2)CC1 [Example 2, 4-Cyclopentyl-6-(4-methyl-piperazin-1-yl)-pyrimidin-2-ylamine]",9.00

# Same assay, conditions: Table 2, data marked with an asterisk (*): obtained by the cell harvester method; [3H] histamine competition binding, SK-N-MC membranes
row,pKi,Compound
1,7.66,"CCCCc1nc(N)nc(N2CC(N)C2)c1OC [Example 103, 4-(3-Amino-azetidin-1-yl)-6-butyl-5-methoxy-pyrimidin-2-ylamine]"
2,6.25,"CN(CCN)c1cc(Cc2ccccc2)nc(N)n1 [Example 250, N^4-(2-Amino-ethyl)-6-benzyl-N^4-methyl-pyrimidine-2,4-diamine]"

# Same assay, conditions: Table 2; [3H] histamine competition binding, membranes of SK-N-MC cells transfected with human H4 receptor; average of results
row,pKi,Compound
1,7.23,"NCCNc1cc(C2CCOC2)nc(N)n1 (centres unmarked) [Example 195, N^4-(2-Amino-ethyl)-6-(tetrahydro-furan-3-yl)-pyrimidine-2,4-diamine]"
2,6.69,"CNCCN(C)c1cc(C2CCOC2)nc(N)n1 (centres unmarked) [Example 197, N^4-Methyl-N^4-(2-methylamino-ethyl)-6-(tetrahydro-furan-3-yl)-pyrimidine-2,4-diamine]"
3,8.10,"CN[C@@H]1CCN(c2cc(CCc3ccccc3)nc(N)n2)C1 [Example 180, (R)-4-(3-Methylamino-pyrrolidin-1-yl)-6-phenethyl-pyrimidin-2-ylamine]"
4,6.64,"CN[C@@H]1CCN(c2cc(Cc3ccncc3)nc(N)n2)C1 [Example 205, (R)-4-(3-Methylamino-pyrrolidin-1-yl)-6-pyridin-4-ylmethyl-pyrimidin-2-ylamine]"
5,8.15,"CN[C@H]1CCN(c2cc(C(C)C)nc(N)n2)C1 [Example 125, (S)-4-Isopropyl-6-(3-methylamino-pyrrolidin-1-yl)-pyrimidin-2-ylamine]"
6,7.35,"Nc1nc(Cc2ccncc2)cc(N2CCNCC2)n1 [Example 204, 4-piperazin-1-yl-6-pyridin-4-ylmethyl-pyrimidin-2-ylamine]"
7,7.51,"CCOCc1cc(N2CC[C@@H](NC)C2)nc(N)n1 [Example 241, (R)-Ethoxymethyl-6-(3-methylamino-pyrrolidin-1-yl)-pyrimidin-2-ylamine]"
8,7.11,"Nc1nc(Cc2ccccc2)cc(N2CC[C@@H](N)C2)n1 [Example 167, (R)-4-(3-Amino-pyrrolidin-1-yl)-6-benzyl-pyrimidin-2-ylamine]"
9,7.48,"COc1c(C2CCCC2)nc(N)nc1N1CC(N)C1 [Example 111, 4-(3-Amino-azetidin-1-yl)-6-cyclopentyl-5-methoxy-pyrimidin-2-ylamine]"
10,< 5.00,"Nc1nc2c(c(N3CC(N)C3)n1)CCCC2 [Example 253, 4-(3-Amino-azetidin-1-yl)-5,6,7,8-tetrahydro-quinazolin-2-ylamine]"
11,7.72,"CC(C)c1cc(NCCN)nc(N)n1 [Example 89, (2-Amino-ethyl)-6-isopropyl-pyrimidine-2,4-diamine]"
12,7.08,"CCCCc1nc(N)nc(N2CCN(C)CC2)c1OC [Example 108, 4-Butyl-5-methoxy-6-(4-methyl-piperazin-1-yl)-pyrimidin-2-ylamine]"
13,7.92,"NCCNc1cc(Cc2ccsc2)nc(N)n1 [Example 212, N^4-(2-Amino-ethyl)-6-thiophen-3-ylmethyl-pyrimidine-2,4-diamine]"
14,5.75,"CN(CCN)c1cc(Cc2ccc(Cl)cc2)nc(N)n1 [Example 238, N^4-(2-Amino-ethyl)-6-(4-chloro-benzyl)-N^4-methyl-pyrimidine-2,4-diamine]"
15,6.40,"CN[C@@H]1CCN(c2cc(C3Cc4ccccc4O3)nc(N)n2)C1 (stereo partly drawn) [Example 169, (R)-4-(2,3-Dihydro-benzofuran-2-yl)-6-(3-methylamino-pyrrolidin-1-yl)-pyrimidin-2-ylamine]"
16,6.62,"COCc1cc(N2CC[C@H](N)C2)nc(N)n1 [Example 118, (S)-4-(3-Amino-pyrrolidin-1-yl)-6-methoxymethyl-pyrimidin-2-ylamine]"
17,7.60,"CCOCc1cc(N2CCNCC2)nc(N)n1 [Example 240, 4-Ethoxymethyl-6-piperazin-1-yl-pyrimidin-2-ylamine]"
18,7.77,"Nc1nc(C2CCOC2)cc(N2CCCNCC2)n1 (centres unmarked) [Example 192, 4-[1,4]-Diazepan-1-yl-6-(tetrahydro-furan-3-yl)-pyrimidin-2-ylamine]"
19,6.33,"COCc1cc(N2CCCC(N)C2)nc(N)n1 (stereo in doubt) [Example 225, (R)-4-(3-Amino-piperidin-1-yl)-6-methoxymethyl-pyrimidin-2-ylamine]"

row,Compound,pKi
1,"Nc1nc(C2CCCC2)cc(N2C[C@H]3CCN[C@H]3C2)n1 [Example 83, (R,R)-4-Cyclopentyl-6-(hexahydro-pyrrolo[3,4-b]pyrrol-5-yl)-pyrimidin-2-ylamine]",8.52
2,"CCCCc1nc(N)nc(N2CCNCC2)c1OC [Example 101, 4-Butyl-5-methoxy-6-piperazin-1-yl-pyrimidin-2-ylamine]",7.52
3,"Nc1nc(C2CCCC2)cc(N2CCC3(CCCN3)C2)n1 (racemic) [Example 84, 4-Cyclopentyl-6-(cis-1,7-diaza-spiro[4.4]non-7-yl)-pyrimidin-2-ylamine]",7.96
4,"Nc1nc(C2CCOC2)cc(N2CC3CCCNC3C2)n1 (stereo not drawn) [Example 190, 4-(cis-Octahydro-pyrrolo[3,4-b]pyridin-6-yl)-6-(tetrahydro-furan-3-yl)-pyrimidin-2-ylamine]",7.96
5,"CC(C)c1cc(N2CC3NCCOC3C2)nc(N)n1 (single isomer, unassigned) [Example 93, 4-(cis-Hexahydro-pyrrolo[3,4-b][1,4]oxazin-6-yl)-6-isopropyl-pyrimidin-2-ylamine]",6.32
6,"CN1C[C@@H]2CN(c3cc(Cc4ccc(Cl)cc4)nc(N)n3)C[C@@H]2C1 [Example 236, 4-(4-Chloro-benzyl)-6-(cis-5-methyl-hexahydro-pyrrolo[3,4-c]pyrrol-2-yl)-pyrimidin-2-ylamine]",6.60
7,"CCCCc1cc(N2CCNCC2)nc(N)n1 [Example 142, 4-Butyl-6-piperazin-1-yl-pyrimidin-2-ylamine]",8.52
8,"Nc1nc2c(c(N3CCNCC3)n1)COCC2 [Example 100, 4-piperazin-1-yl-7,8-dihydro-5H-pyrano[4,3-d]pyrimidin-2-ylamine]",6.58
